Key:
[1] = molecular target: T1, AtBBE-like 15 (Arabidopsis thaliana, UniProt O64743); test: Thermofluor, SYPRO Orange; type: binding; settings: 50 mM MES pH 7.0, 2 mg/ml ligand
T1 construct: gene MEE23; secreted by Komagataella pastoris (codon-optimised synthetic gene); crystallised as 27-532; bicovalent FAD (His-115, Cys-179)

[2] = molecular target: T1, AtBBE-like 15; test: X-ray crystal structure, […] Å; type: binding; settings: covalent (bicovalent: His-115 to 8α-methyl, Cys-179 to C6)
[3] = molecular target: T2, AtBBE-like 13 (Arabidopsis thaliana, UniProt Q93ZA3); test: stopped-flow reductive half-reaction, flavin absorbance at […] nm; type: biochemical; settings: 50 mM potassium phosphate pH 7.0, 25 °C, anoxic
T2 construct: gene At1g30760; isolated from Komagataella pastoris cells (codon-optimised synthetic gene)
T2 sequence (Q93ZA3 31-534): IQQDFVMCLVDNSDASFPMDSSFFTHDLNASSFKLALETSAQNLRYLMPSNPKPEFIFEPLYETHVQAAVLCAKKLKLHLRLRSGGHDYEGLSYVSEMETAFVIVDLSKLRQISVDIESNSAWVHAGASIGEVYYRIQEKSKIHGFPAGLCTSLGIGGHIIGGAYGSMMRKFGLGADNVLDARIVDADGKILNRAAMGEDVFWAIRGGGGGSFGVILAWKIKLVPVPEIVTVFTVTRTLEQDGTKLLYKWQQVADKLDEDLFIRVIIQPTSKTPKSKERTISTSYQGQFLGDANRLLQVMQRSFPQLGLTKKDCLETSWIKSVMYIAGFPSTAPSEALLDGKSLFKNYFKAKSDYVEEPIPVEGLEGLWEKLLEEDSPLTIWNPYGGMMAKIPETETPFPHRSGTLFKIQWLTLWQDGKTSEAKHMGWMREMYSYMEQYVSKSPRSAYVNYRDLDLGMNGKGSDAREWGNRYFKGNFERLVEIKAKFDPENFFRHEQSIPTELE

[4] = molecular target: T1, AtBBE-like 15; test: as above; type: biochemical; settings: 50 mM potassium phosphate pH 7.0, 25 °C, anoxic

T1 sequence (O64743 27-532): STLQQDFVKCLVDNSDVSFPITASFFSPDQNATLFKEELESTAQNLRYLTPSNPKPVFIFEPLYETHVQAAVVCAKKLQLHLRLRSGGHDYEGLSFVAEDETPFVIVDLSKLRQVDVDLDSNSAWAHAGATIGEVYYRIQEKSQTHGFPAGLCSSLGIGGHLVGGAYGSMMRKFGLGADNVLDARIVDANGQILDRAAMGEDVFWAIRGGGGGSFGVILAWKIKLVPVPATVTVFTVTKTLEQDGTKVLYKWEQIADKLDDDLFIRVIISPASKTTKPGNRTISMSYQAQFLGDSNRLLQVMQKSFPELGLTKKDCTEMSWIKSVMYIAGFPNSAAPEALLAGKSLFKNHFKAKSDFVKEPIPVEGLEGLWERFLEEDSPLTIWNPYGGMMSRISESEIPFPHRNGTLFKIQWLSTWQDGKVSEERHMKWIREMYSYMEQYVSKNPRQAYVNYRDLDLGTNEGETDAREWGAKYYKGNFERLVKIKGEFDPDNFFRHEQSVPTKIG

Kd [3] [µM] | Kd [4] [µM] | Compound | increase of the melting temperature [1] | X-ray crystal structure, 2.1 Å [2]
 |  | OC[C@H]1OC(O)[C@H](O)[C@@H](O)[C@@H]1O (stereo partly drawn) [D-glucose] | monosaccharides, such as D-glucose, had such a profound effect on the protein's thermal stability | 
 |  | Cc1cc2nc3c(=O)[nH]c(=O)nc-3n(C[C@H](O)[C@H](O)[C@H](O)COP(=O)(O)OP(=O)(O)OC[C@H]3O[C@@H](n4cnc5c(N)ncnc54)[C@H](O)[C@@H]3O)c2cc1C [FAD] |  | The FAD cofactor is bicovalently linked to the peptide chain
1860 ± 624 | 660 ± 100 | COc1cc(/C=C/CO)ccc1O[C@@H]1O[C@H](CO)[C@@H](O)[C@H](O)[C@H]1O [coniferin] |  | 
867 ± 123 | 700 ± 120 | OC/C=C/c1ccc(O)cc1 [p-coumaryl alcohol] |  | 
